The text below walks through data of ChEMBL document CHEMBL1140955, “Synthesis and in vitro biological evaluation of valine-containing prodrugs derived from clinically used HIV-protease inhibitors” (Eur J Med Chem, 2008).

Series [1] in a line: Cytotoxicity against human CEM-SS cells after 5 days by MTT assay. Format: cell-based. In general terms: Tetrazolium assays rely on reduction of a dye to a coloured formazan, in cell work by metabolically active cells.
For series [2], the system named is Human immunodeficiency virus 1. As to the kind of experiment: Antiviral activity against HIV1 LAI infected in human CEM-SS cells assessed as ratio of IC50 for prodrug to IC50 for parent compound. It counts as functional.
The nature of series [3]: Cytotoxicity against human MT4 cells after 4 days by MTT assay. It counts as cell-based.
Series [4] concerns Human immunodeficiency virus 1. Briefly: Antiviral activity against HIV1 LAI infected in human CEM-SS cells assessed as reverse transcriptase activity after 5 days by MTT assay. Format: functional, organism-based. The settings on record: Human immunodeficiency virus 1, LAI, 120 h.
Series [5] deals with Caco-2. Briefly: Permeability from basolateral to apical side of human Caco-2 cells assessed as ratio of prodrug concentration in receiver to prodrug concentration in donor at 26.5 uM in donor chamber after 3 hrs. Format: ADME, cell-based. To be noted: caco-2, 3 h.
In series [6] the test system is Caco-2. Briefly: Permeability from apical to basolateral side of human Caco-2 cells assessed as ratio of prodrug concentration in receiver to prodrug concentration in donor at 26.5 uM in donor chamber after 3 hrs. It counts as ADME, cell-based. To be noted: caco-2, 3 h. In general terms: Caco-2 cells form a polarised layer with tight junctions and transporters.
Series [7] concerns Human immunodeficiency virus 1. Briefly: Antiviral activity against HIV1 3B infected in human MT4 cells assessed as reverse transcriptase activity after 5 days by MTT assay. To be noted: Human immunodeficiency virus 1, 3B, MT4, 120 h.
Series [8] is described as follows: Apparent permeability from apical to basolateral side of human Caco-2 cells at 26.5 uM in donor chamber after 3 hrs. It counts as ADME, cell-based. To be noted: read-out: permeability.
In series [9] the test system is Caco-2. As to the kind of experiment: Permeability from apical to basolateral side of human Caco-2 cells assessed as ratio of prodrug concentration in receiver to prodrug concentration in donor at 177 uM in donor chamber after 3 hrs. To be noted: caco-2, 3 h. It counts as ADME, cell-based.
A short description of series [10]: Apparent permeability from basolateral to apical side of human Caco-2 cells at 26.5 uM in donor chamber after 3 hrs. It counts as ADME, cell-based. To be noted: read-out: permeability.
Series [11] deals with Human immunodeficiency virus 1. As to the kind of experiment: Antiviral activity against HIV1 3B infected in human MT4 cells assessed as ratio of IC50 for prodrug to IC50 for parent compound.
Series [12] concerns Caco-2. As to the kind of experiment: Permeability from apical to basolateral side of human Caco-2 cells assessed as ratio of prodrug concentration in receiver to prodrug concentration in donor at 330 uM in donor chamber after 3 hrs. The settings on record: caco-2, 3 h. It counts as ADME, cell-based.
The test system of series [13] is Caco-2. Briefly: Permeability from basolateral to apical side of human Caco-2 cells assessed as ratio of prodrug concentration in receiver to prodrug concentration in donor at 177 uM in donor chamber after 3 hrs. To be noted: caco-2, 3 h. Format: ADME, cell-based.
In series [14] the test system is Caco-2. As to the kind of experiment: Permeability from basolateral to apical side of human Caco-2 cells assessed as ratio of prodrug concentration in receiver to prodrug concentration in donor at 330 uM in donor chamber after 3 hrs. Format: ADME, cell-based. The settings on record: caco-2, 3 h.
Series [15] is described as follows: Chemical stability assessed as hydrolysis half life at pH 7.3. Format: physicochemical. The settings on record: buffer.
A short description of series [16]: Apparent permeability from basolateral to apical side of human Caco-2 cells at 185 uM in donor chamber after 3 hrs. It counts as ADME, cell-based. To be noted: read-out: permeability.
For series [17], the system named is Caco-2. As to the kind of experiment: Permeability from basolateral to apical side of human Caco-2 cells assessed as ratio of prodrug concentration in receiver to prodrug concentration in donor at 185 uM in donor chamber after 3 hrs. The settings on record: caco-2, 3 h. It counts as ADME, cell-based.
Series [18] in a line: Apparent permeability from apical to basolateral side of human Caco-2 cells at 177 uM in donor chamber after 3 hrs. It counts as ADME, cell-based. To be noted: read-out: permeability.
Series [19] in a line: Apparent permeability from basolateral to apical side of human Caco-2 cells at 177 uM in donor chamber after 3 hrs. It counts as ADME, cell-based. The settings on record: read-out: permeability.
For series [20], the system named is Caco-2. As to the kind of experiment: Permeability from apical to basolateral side of human Caco-2 cells assessed as ratio of prodrug concentration in receiver to prodrug concentration in donor at 80 uM in donor chamber after 3 hrs. It counts as ADME, cell-based. The settings on record: caco-2, 3 h.
The subject of series [21] is Caco-2. As to the kind of experiment: Permeability from basolateral to apical side of human Caco-2 cells assessed as ratio of prodrug concentration in receiver to prodrug concentration in donor at 80 uM in donor chamber after 3 hrs. Format: ADME, cell-based. To be noted: caco-2, 3 h.
Series [22] can be described thus: Apparent permeability from apical to basolateral side of human Caco-2 cells at 80 uM in donor chamber after 3 hrs. Format: ADME, cell-based. The settings on record: read-out: permeability.
The nature of series [23]: Apparent permeability from basolateral to apical side of human Caco-2 cells at 80 uM in donor chamber after 3 hrs. It counts as ADME, cell-based. To be noted: read-out: permeability.
Series [24] is described as follows: Apparent permeability from apical to basolateral side of human Caco-2 cells at 175 uM in donor chamber after 3 hrs. To be noted: read-out: permeability. Format: ADME, cell-based.
Series [25] in a line: Apparent permeability from basolateral to apical side of human Caco-2 cells at 175 uM in donor chamber after 3 hrs. It counts as ADME, cell-based. To be noted: read-out: permeability.

Usually CC50 stands for the concentration at which the toxic effect on the cells reaches its halfway point. A high value points to lower toxicity to the cells. Usually IC50 stands for the concentration at which inhibition is half-maximal. For orientation: half-life means how long it takes for the measured level to halve. In turn, `CC(C)[C@@H](N)C(=O)NCCCCCC(=O)O[C@H](CN1C[C@H]2CCCC[C@H]2C[C@H]1C(=O)NC(C)(C)C)[C@H](Cc1ccccc1)NC(=O)[C@H](CC(N)=O)NC(=O)c1ccc2ccccc2n1.O=C(O)C(F)(F)F.O=C(O)C(F)(F)F.O=C(O)C(F)(F)F` came in with a CC50 at 120 h in series [1] of 9 µM. In addition, the “Ratio IC50” value in series [2] and in series [11] was 19 each time. The compound also yielded a CC50 at 96 h in series [3] of 5.3 µM. For the same compound, the IC50 in [4] was found to be 0.175 µM; in [7] it was 0.34 µM. The Activity in series [5] is 4.8%; in series [6], 2.2%; in [9], 14%; in series [12], 15.6%; in series [13] it was 14.6%; in series [14] it was 18.1%. The Papp A→B at 3 h, 26.5 µM in series [8] amounted to 0.58 ×10⁻⁶ cm/s. Moreover, the Papp B→A at 3 h, 26.5 µM in [10] turned out to be 1.87 ×10⁻⁶ cm/s. For the same compound, the half-life in [15] is 60 h.

Turning to `CC(C)[C@H](N)C(=O)NCCCCCC(=O)O[C@@H]1Cc2ccccc2[C@@H]1NC(=O)[C@H](Cc1ccccc1)C[C@H](O)CN1CCN(Cc2cccnc2)C[C@H]1C(=O)NC(C)(C)C.O=C(O)C(F)(F)F`, the Papp B→A at 3 h, 185 µM in series [16] amounted to 2.92 ×10⁻⁶ cm/s. This compound also came in with a CC50 at 120 h in series [1] of more than 10 µM. For the same compound, the “Ratio IC50” value in series [2] is given as “>=3.6”; in series [11] it was 10. For the same compound, the midpoint of cytotoxicity in series [3], the CC50 at 96 h, lay at 47 µM. In addition, the IC50 in [4] is 0.036 µM; in series [7] it was 0.23 µM. In addition, the Activity in [17] stood at 9%. Further, in [15], the half-life was 72 h.

As for `CC(C)[C@H](N)C(=O)O[C@@H](C[C@@H](Cc1ccccc1)C(=O)N[C@H]1c2ccccc2C[C@H]1O)CN1CCN(Cc2cccnc2)C[C@H]1C(=O)NC(C)(C)C.O=C(O)C(F)(F)F`, the CC50 at 120 h in series [1] is more than 100 µM. The “Ratio IC50” value in series [2] is on record as “>=9”; in series [11] it was 1. Besides, half-maximal cytotoxicity in series [3] (CC50 at 96 h) was put at 100 µM. For the same compound, the IC50 in [4] is 0.09 µM; in series [7], 0.027 µM. Moreover, the results for the Activity in [9] and in series [13] were 14% and 14.6%, respectively. Further, the Papp A→B at 3 h, 177 µM in [18] is 5.13 ×10⁻⁶ cm/s. For the same compound, the Papp B→A at 3 h, 177 µM in series [19] worked out at 7.08 ×10⁻⁶ cm/s. Also, the half-life in [15] was 68 h.

With `Cc1c(OC(=O)CCCCCNC(=O)[C@@H](N)C(C)C)cccc1C(=O)N[C@@H](CSc1ccccc1)[C@@H](CN1C[C@H]2CCCC[C@H]2C[C@H]1C(=O)NC(C)(C)C)OC(=O)CCCCCNC(=O)[C@H](N)C(C)C.O=C(O)C(F)(F)F.O=C(O)C(F)(F)F`, it took 5 µM to reach half-maximal cytotoxicity in series [1] (CC50 at 120 h). In addition, the “Ratio IC50” value in [2] is 7750. This compound also yielded a CC50 at 96 h in series [3] of 4.8 µM. In addition, the IC50 in [4] is 15.5 µM. Moreover, the half-life in series [15] was 82 h.

As to `Cc1c(O)cccc1C(=O)N[C@@H](CSc1ccccc1)[C@H](O)CN1C[C@H]2CCCC[C@H]2C[C@H]1C(=O)NC(C)(C)C`, the Activity is recorded as 2.7% in [20] and 6.3% in series [21]. Also, the IC50 in series [4] is 0.002 µM. Also, the Papp A→B at 3 h, 80 µM in series [22] was found to be 1.03 ×10⁻⁶ cm/s. Besides, the Papp B→A at 3 h, 80 µM in series [23] was found to be 2.51 ×10⁻⁶ cm/s.

As for `CC(C)(C)NC(=O)[C@@H]1CN(Cc2cccnc2)CCN1C[C@@H](O)C[C@@H](Cc1ccccc1)C(=O)N[C@H]1c2ccccc2C[C@H]1O.O=S(=O)(O)O` [INDINAVIR SULFATE], the CC50 at 120 h in series [1] is more than 100 µM. Also, the CC50 at 96 h in [3] is more than 100 µM. The Papp A→B at 3 h, 175 µM in series [24] stood at 1.03 ×10⁻⁶ cm/s. In series [25], the Papp B→A at 3 h, 175 µM came to 15.5 ×10⁻⁶ cm/s. Besides, the IC50 in [4] was not above 0.01 µM; in [7], 0.022 µM.
